Assay results as given in patent US11952577B2, “Yarrowia lipolytica yeast strains expressing an HMG-CoA reductase having increased activity or expression” (NUCELIS LLC, priority 2009, dated 2024).

How the values were obtained:
[1] = test system: Yarrowia lipolytica ATCC 90904; assay: Cultivation in supplemented CYM001 media, lipid and squalene production; type: cell-based; conditions: 30′C, 300 rpm, 120 h
Description: For example, Yarrowia lipolytica ATCC 90904 was cultivated in high Carbon/Nitrogen ratio media (C/N=420, Li. Y-H., Liu, B., Zhao, Z-B., and Bai. F-W. 2006 “Optimized Culture Medium and Fermentation Conditions for Lipid Production by Rhodosporidium toruloides” Chinese Journal of Biotechnology 22(4): 650-656) (hereinafter “CYM001 Media”) supplemented with 0 to 50 μg/ml terbinafine at 30′C, 300 rpm for 120 h.
In another example, Yarrowia lipolytica ATCC 90904 was cultivated in CYM001 media supplemented with 0 to 50 μg/ml Oleic acid at 30′C, 300 rpm for 120 h.
In a further example, Yarrowia lipolytica ATCC 90904 was cultivated in CYM001 media supplemented with 0 to 200 μM clethodim at 30′C, 300 rpm for 120 h.

[2] = test system: Yarrowia lipolytica strain polg (Yeastern); assay: as above; type: cell-based; conditions: 30′C, 300 rpm, 120 h
Description: Various Yarrowia lipolylica strains are used for lipid and squalene production including ATCC 20688, ATCC 90811, ATCC 90904, ATCC 90812, ATCC MYA-2613, and Yeastern polg. For example, Yarrowia lipolytica strain polg (Yeastern) was cultivated in high Carbon/Nitrogen ratio media (C/N=420, Li, Y-H., Liu. B., Zhao. Z-B., and Bai, F-W. 2006 “Optimized Culture Medium and Fermentation Conditions for Lipid Production by Rhodosporidium toruloides” Chinese Journal of Biotechnology 22(4): 650-656) (hereinafter “CYM001 Media”) supplemented with 0 to 50 μg/ml terbinafine at 30′C, 300 rpm for 120 h.

## CCSC(C)CC1CC(=O)C(/C(CC)=N/OC/C=C/Cl)=C(O)C1 (centres unmarked) [clethodim]
[1]; 200 μM
  increase in the yield (mg) of squalene per 60-ml flask: 60 fold

## CCCCCCCC/C=C\CCCCCCCC(=O)O [Oleic acid]
[1]; 10 μl/ml
  improvement of lipid accumulation in lipid/CDW over no supplementation: 10 fold

## CN(C/C=C/C#CC(C)(C)C)Cc1cccc2ccccc12 [terbinafine]
[1]; 12.5 μg/ml or higher
  total lipid as squalene: up to 18.5%
[2]; 12.5 μg/ml or higher, CYM001 media
  total lipid as squalene: up to 38%
[2]; terbinafine-supplemented CYM001 media
  total lipid/Cell Dry weight: up to 51%
